# In publication PMC7926793, “Synthesis and Biological Evaluation of 1-(Diarylmethyl)-1H-1,2,4-triazoles and 1-(Diarylmethyl)-1H-imidazoles as a Novel Class of Anti-Mitotic Agent for Activity in Breast Cancer” (Pharmaceuticals, 2021):
# Several values for one entry are separate records, joined by “and”; a condition that tells them apart may be missing. Equal entries are not always repeated.
# Columns and labels:
# [1] = tested on: IGROV1; test: NCI 60 cell line screen (Ovarian Cancer); format: cell-based, human; conditions: IGROV1, single dose 10 µM
# [2] = tested on: HOP-92; test: NCI 60 cell line screen (Non-Small Cell Lung Cancer); format: cell-based, human; conditions: HOP-92, single dose 10 µM
# [3] = tested on: COLO 205; test: NCI 60 cell line screen (Colon Cancer); format: cell-based, human; conditions: COLO 205, single dose 10 µM
# [4] = tested on: K-562; test: NCI 60 cell line screen (Leukemia); format: cell-based, human; conditions: K-562, single dose 10 µM
# [5] = tested on: UACC-257; test: NCI 60 cell line screen (Melanoma); format: cell-based, human; conditions: UACC-257, single dose 10 µM
# [6] = tested on: UO-31; test: NCI 60 cell line screen (Renal Cancer); format: cell-based, human; conditions: UO-31, single dose 10 µM
# [7] = tested on: HCT-116; test: NCI 60 cell line screen (Colon Cancer); format: cell-based, human; conditions: HCT-116, single dose 10 µM
# [8] = tested on: NCI 60 cell line panel; test: NCI 60 cell line screen, panel means; format: cell-based, human; conditions: for Mean Growth percentage: 60 cell line panel, single dose 10 µM; for mean growth: 10 μM
# [9] = tested on: EKVX; test: NCI 60 cell line screen (Non-Small Cell Lung Cancer); format: cell-based, human; conditions: single dose 10 µM
# [10] = tested on: BT-549; test: NCI 60 cell line screen (Breast Cancer); format: cell-based, human; conditions: BT-549, single dose 10 µM
# [11] = tested on: MOLT-4; test: NCI 60 cell line screen (Leukemia); format: cell-based, human; conditions: MOLT-4, single dose 10 µM
# [12] = tested on: M14; test: NCI 60 cell line screen (Melanoma); format: cell-based, human; conditions: M14, single dose 10 µM
# [13] = tested on: A549/ATCC; test: NCI 60 cell line screen (Non-Small Cell Lung Cancer); format: cell-based, human; conditions: single dose 10 µM
# [14] = tested on: RXF 393; test: NCI 60 cell line screen (Renal Cancer); format: cell-based, human; conditions: RXF 393, single dose 10 µM
# [15] = tested on: CAKI-1; test: NCI 60 cell line screen (Renal Cancer); format: cell-based, human; conditions: CAKI-1, single dose 10 µM
# [16] = tested on: SF539; test: NCI 60 cell line screen (CNS Cancer); format: cell-based, human; conditions: SF539, single dose 10 µM
# [17] = tested on: MDA-MB-468; test: NCI 60 cell line screen (Breast Cancer); format: cell-based, human; conditions: MDA-MB-468, single dose 10 µM
# [18] = tested on: DU-145; test: NCI 60 cell line screen (Prostate cancer); format: cell-based, human; conditions: DU-145, single dose 10 µM
# [19] = tested on: MALME-3M; test: NCI 60 cell line screen (Melanoma); format: cell-based, human; conditions: single dose 10 µM
# [20] = tested on: MDA-MB-435; test: NCI 60 cell line screen (Melanoma); format: cell-based, human; conditions: MDA-MB-435, single dose 10 µM
# [21] = tested on: NCI-H332M; test: NCI 60 cell line screen (Non-Small Cell Lung Cancer); format: cell-based, human; conditions: single dose 10 µM
# [22] = tested on: SF295; test: NCI 60 cell line screen (CNS Cancer); format: cell-based, human; conditions: SF295, single dose 10 µM
# [23] = tested on: HL-60 (TB); test: NCI 60 cell line screen (Leukemia); format: cell-based, human; conditions: single dose 10 µM
# [24] = tested on: MCF-7; test: NCI 60 cell line screen (Breast Cancer); format: cell-based, human; conditions: MCF-7, single dose 10 µM
# [25] = tested on: NCI-H552; test: NCI 60 cell line screen (Non-Small Cell Lung Cancer); format: cell-based, human; conditions: NCI-H552, single dose 10 µM
# [26] = tested on: RPMI-8226; test: NCI 60 cell line screen (Leukemia); format: cell-based, human; conditions: RPMI-8226, single dose 10 µM
# [27] = tested on: PC-3; test: NCI 60 cell line screen (Prostate cancer); format: cell-based, human; conditions: PC-3, single dose 10 µM
# [28] = tested on: HT29; test: NCI 60 cell line screen (Colon Cancer); format: cell-based, human; conditions: HT29, single dose 10 µM
# [29] = tested on: 786-0; test: NCI 60 cell line screen (Renal Cancer); format: cell-based, human; conditions: 786-0, single dose 10 µM
# [30] = tested on: OVCAR-3; test: NCI 60 cell line screen (Ovarian Cancer); format: cell-based, human; conditions: OVCAR-3, single dose 10 µM
# [31] = biological target: T1, CYP19 (aromatase) (Homo sapiens, UniProt P11511); test: cytochrome P450 assay (DBF fluorescence)
# T1 sequence (P11511 1-503): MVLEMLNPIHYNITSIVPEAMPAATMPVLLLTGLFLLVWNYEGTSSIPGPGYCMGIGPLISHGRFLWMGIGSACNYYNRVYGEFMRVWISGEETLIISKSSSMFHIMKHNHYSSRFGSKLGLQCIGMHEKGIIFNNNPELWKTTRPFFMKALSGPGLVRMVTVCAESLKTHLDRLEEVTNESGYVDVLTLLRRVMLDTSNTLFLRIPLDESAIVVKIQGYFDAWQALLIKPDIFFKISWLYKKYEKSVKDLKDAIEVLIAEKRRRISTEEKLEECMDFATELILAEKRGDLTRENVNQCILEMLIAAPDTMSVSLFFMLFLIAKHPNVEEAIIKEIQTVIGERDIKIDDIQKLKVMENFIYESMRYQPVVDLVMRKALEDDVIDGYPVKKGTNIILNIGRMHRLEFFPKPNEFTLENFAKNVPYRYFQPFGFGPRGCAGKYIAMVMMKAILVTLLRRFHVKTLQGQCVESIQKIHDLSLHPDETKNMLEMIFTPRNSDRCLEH
# [32] = toxicity evaluation, alamarBlue assay; format: cell-based, human; conditions: human, MCF-10A cells, 72 h, read-out: percentage of viable cells
compound,measurement,setting,value
COc1ccc(C(c2cc(OC)c(OC)c(OC)c2)N2CCN(Cc3ccccc3)CC2)cc1 (stereo not shown) [27d],Growth percentage,[1],62.96%
same,Growth percentage,[2],70.59%
same,Growth percentage,[3],61.78%
same,Growth percentage,[4],26.38%
same,Growth percentage,[5],84.23%
same,Growth percentage,[6],68.80%
same,Growth percentage,[7],56.66%
same,Mean Growth percentage,[8],65.45% and 65.5%
same,Growth percentage,[9],82.69%
same,Growth percentage,[10],92.41%
same,Growth percentage,[11],53.48%
same,Growth percentage,[12],52.83%
same,Growth percentage,[13],78.38%
same,Growth percentage,[14],72.30%
same,Growth percentage,[15],66.73%
same,Growth percentage,[16],81.24%
same,Growth percentage,[17],52.99%
same,Growth percentage,[18],102.00%
same,Growth percentage,[19],74.83%
same,Growth percentage,[20],-32.20%
same,Growth percentage,[21],65.07%
same,Growth percentage,[22],68.71%
same,Growth percentage,[23],22.98%
same,Growth percentage,[24],47.67%
same,Growth percentage,[25],52.38%
same,Growth percentage,[26],84.15%
same,Growth percentage,[27],59.28%
same,Growth percentage,[28],28.31%
same,Growth percentage,[29],82.57%
same,Growth percentage,[30],68.96%
COc1ccc(C(c2cc(OC)c(OC)c(OC)c2)N2CCCC2)cc1 (stereo not shown) [25g],Growth percentage,[1],82.87%
same,Growth percentage,[2],85.48%
same,Growth percentage,[3],71.23%
same,Growth percentage,[4],25.23%
same,Growth percentage,[5],74.57%
same,Growth percentage,[6],75.13%
same,Growth percentage,[7],62.27%
same,Mean Growth percentage,[8],73.14% and 73.1%
same,Growth percentage,[9],87.78%
same,Growth percentage,[10],81.58%
same,Growth percentage,[11],78.09%
same,Growth percentage,[12],60.08%
same,Growth percentage,[13],77.65%
same,Growth percentage,[14],103.13%
same,Growth percentage,[15],77.46%
same,Growth percentage,[16],95.69%
same,Growth percentage,[17],54.75%
same,Growth percentage,[18],103.12%
same,Growth percentage,[19],85.32%
same,Growth percentage,[20],-21.80%
same,Growth percentage,[21],87.51%
same,Growth percentage,[22],69.71%
same,Growth percentage,[23],35.51%
same,Growth percentage,[24],64.09%
same,Growth percentage,[25],58.47%
same,Growth percentage,[26],97.42%
same,Growth percentage,[27],63.89%
same,Growth percentage,[28],40.59%
same,Growth percentage,[29],93.40%
same,Growth percentage,[30],66.63%
"COc1ccc(C(c2cc(OC)c(OC)c(OC)c2)N2CCCCC2)cc1 (stereo not shown) [26b, 1-((4-Methoxyphenyl)(3,4,5-Trimethoxyphenyl)Methyl)Piperidine]",Growth percentage,[1],47.13%
same,Growth percentage,[2],44.15%
same,Growth percentage,[3],16.14%
same,Growth percentage,[4],18.04%
same,Growth percentage,[5],54.88%
same,Growth percentage,[6],48.76%
same,Growth percentage,[7],29.08%
same,Mean Growth percentage,[8],34.17% and 34.2%
same,mean growth,[8]; breast cancer panel,30.3%
same,mean growth,[8]; leukaemia panel,23.5%
same,Growth percentage,[9],59.13%
same,Growth percentage,[10],49.73%
same,Growth percentage,[11],31.54%
same,Growth percentage,[12],23.27%
same,Growth percentage,[13],49.14%
same,Growth percentage,[14],25.99%
same,Growth percentage,[15],29.22%
same,Growth percentage,[16],27.71%
same,Growth percentage,[17],9.32% and 9.3%
same,Growth percentage,[18],64.18%
same,Growth percentage,[19],55.25%
same,Growth percentage,[20],-21.79%
same,Growth percentage,[21],47.90%
same,Growth percentage,[22],18.75%
same,Growth percentage,[23],4.36%
same,Growth percentage,[24],23.57%
same,Growth percentage,[25],19.85%
same,Growth percentage,[26],41.20%
same,Growth percentage,[27],25.08%
same,Growth percentage,[28],7.93%
same,Growth percentage,[29],38.84%
same,Growth percentage,[30],8.29%
COc1ccc(C(c2cc(OC)c(OC)c(OC)c2)n2nccn2)cc1O (stereo not shown) [compound 24],IC50,[31]; IC50 CYP19,> 53.8 µM
same,inhibition at 20 µg/mL,[31]; read-out: % Inhibition at 20 µg/mL CYP19,0.01%
same,"viability at 72 h, 0.1 µM",[32]; 0.1 μM,96%
same,"viability at 72 h, 1 µM",[32]; 1 μM,71%
same,"viability at 72 h, 10 µM",[32]; 10 μM,61%
